The source of these data is ChEMBL document CHEMBL6178023 (J Med Chem, 2025).

Converted amounts (≈) assume the structure as drawn. The source made the active and inactive calls. No cut-off for these calls is given here.

In data set [1] the test system is Chikungunya virus. The experiment in a line: Antiviral activity against CHIKV 181/25 expressing nLuc-capsid gene infected in human MRC5 cells assessed as inhibition of viral replication at 40 uM preincubated with cells for 1 hr followed by viral infection measured after 6 hrs post-infection by Nano-glo luciferase assay relative to control. The conditions noted are these: for inhibition at 40 µM: 181/25, MRC5, time 7 hrs; for inhibition: time 7.0 hrs. The format is functional.

Data set [2] concerns Chikungunya virus. Briefly: Antiviral activity against CHIKV 181/25 expressing nLuc-capsid gene infected in human MRC5 cells assessed as reduction in viral replication preincubated with cells for 1 hr followed by viral infection measured after 6 hrs post-infection by Nano-glo luciferase assay. In kind it is functional, organism-based. The conditions noted are these: 181/25, MRC5, read-out: pEC50 (converted).

Data set [3] concerns Chikungunya virus. The experiment in a line: Inhibition of N-terminal 6-His/SUMO-tagged CHIKV 181/25 nsP2 extracted from Escherichia coli Rosetta 2 at 200 uM preincubated for 30 mins followed by ATP addition measured after 1 hr by ADP-Glo assay relative to control. Conditions: time 90.0 min.
The next data set concerns MRC5. The experiment in a line: Cytotoxicity against human MRC5 cells at 10 to 40 uM by Cell Titer Glo assay. The format is toxicity, cell-based. The conditions noted are these: mrc5, 40 µM, dose 10-40 µM. For orientation: In ATP-based viability assays light output follows the ATP content of the culture.
The next data set deals with Polyprotein P1234 (Chikungunya virus (strain S27-African prototype) (CHIKV), UniProt Q8JUX6). Briefly: Inhibition of N-terminal 6-His/SUMO-tagged CHIKV 181/25 nsP2 extracted from Escherichia coli Rosetta 2 preincubated for 30 mins followed by ATP addition measured after 1 hr by ADP-Glo assay. (ADP-Glo first removes unused ATP, then detects ADP through luciferase.)
Data set [4] in a line: Aqueous solubility of compound in PBS at pH 7.4. The format is physicochemical.

One may read the inhibition as the percentage by which the read-out fell short of the control. By IC50 is commonly meant the concentration needed to halve the response being measured. The term solubility (kinetic) denotes the concentration staying in solution when a stock, usually in DMSO, is diluted into the medium.

Polyprotein P1234, sequence (Q8JUX6 536-1333 limits assumed): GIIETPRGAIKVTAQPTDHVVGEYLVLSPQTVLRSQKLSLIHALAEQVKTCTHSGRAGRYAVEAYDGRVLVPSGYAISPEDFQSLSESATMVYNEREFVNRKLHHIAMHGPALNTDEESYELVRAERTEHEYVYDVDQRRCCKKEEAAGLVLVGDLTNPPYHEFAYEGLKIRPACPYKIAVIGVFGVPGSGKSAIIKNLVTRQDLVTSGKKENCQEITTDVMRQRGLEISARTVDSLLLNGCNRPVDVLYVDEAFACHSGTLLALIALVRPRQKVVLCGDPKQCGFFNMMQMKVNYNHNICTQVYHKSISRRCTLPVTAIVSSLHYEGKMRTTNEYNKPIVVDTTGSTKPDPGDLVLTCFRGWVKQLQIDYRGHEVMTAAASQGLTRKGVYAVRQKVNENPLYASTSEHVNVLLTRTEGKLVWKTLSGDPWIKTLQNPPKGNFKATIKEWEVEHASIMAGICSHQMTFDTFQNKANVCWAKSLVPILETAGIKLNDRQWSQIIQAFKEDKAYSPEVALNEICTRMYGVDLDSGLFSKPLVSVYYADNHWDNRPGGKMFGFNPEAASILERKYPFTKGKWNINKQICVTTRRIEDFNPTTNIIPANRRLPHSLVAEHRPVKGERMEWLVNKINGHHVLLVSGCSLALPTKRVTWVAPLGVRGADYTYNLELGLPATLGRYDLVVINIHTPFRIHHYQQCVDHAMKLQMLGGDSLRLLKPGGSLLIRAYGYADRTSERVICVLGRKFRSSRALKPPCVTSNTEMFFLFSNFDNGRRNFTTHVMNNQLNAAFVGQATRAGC

As for `CN(C)S(=O)(=O)NCC1CCOC2(CCN(C(=O)C3(c4ccccn4)CCCC3)CC2)C1` (stereo unspecified), the inhibition at 40 µM in the data set with Chikungunya virus [1] was determined as 70%. The EC50 in the data set with Chikungunya virus [2] is greater than 39.8 µM. Also, the inhibition in the data set on Chikungunya virus [3] came to 40%. Moreover, the Activity result in the data set on MRC5 is reported as “Non-toxic”. This compound had an IC50 on Polyprotein P1234 greater than 39.8 µM.

On to `CN(C)S(=O)(=O)NCC1CCOC2(CCN(C(=O)C3(c4ccccc4)CCCO3)CC2)C1` (stereo unspecified), for which the solubility (kinetic) in data set [4] is 200 µM (≈ 93.1 µg/mL). Also, the inhibition entry in the data set with Chikungunya virus [1] and with Chikungunya virus [3] was “inactive” in each case. Moreover, in the data set with MRC5, the Activity result is “Non-toxic”.

As for `CCCCCCOc1ccc(C(=O)NCC2CCOC3(CCN(C(=O)C4(c5ccccc5)CCCC4)CC3)C2)cc1` (stereo unspecified), in data set [4], the kinetic solubility was less than 1 µM. Besides, the inhibition at 40 µM in the data set on Chikungunya virus [1] is 70%. Besides, the EC50 in the data set with Chikungunya virus [2] is greater than 39.8 µM. Further, the inhibition entry in the data set with Chikungunya virus [3] was “inactive”. For the same compound, in the data set on MRC5, the Activity result is reported as “Non-toxic”.

As to `CC(C)(C(=O)N1CCC2(CC1)CC(CNS(C)(=O)=O)CCO2)c1ccccc1` (stereo unspecified), in data set [4], the solubility (kinetic) turned out to be 220 µM (≈ 89.9 µg/mL). Besides, the inhibition at 40 µM with Chikungunya virus [1] is 50%. Further, the EC50 with Chikungunya virus [2] was greater than 39.8 µM. In the data set on Chikungunya virus [3], the inhibition was determined as 40%. For the same compound, the Activity entry in the data set with MRC5 is “Non-toxic”. The half-inhibitory concentration (IC50) at Polyprotein P1234 was greater than 39.8 µM.

On to `CS(=O)(=O)NCC1CCOC2(CCN(C(=O)C3(c4ccccc4)CCC3)CC2)C1` (stereo unspecified), for which the solubility (kinetic) in data set [4] was 160 µM (≈ 67.3 µg/mL). The inhibition result with Chikungunya virus [1] and in the data set on Chikungunya virus [3] was “inactive” in each case. Further, in the data set on MRC5, the Activity entry is on record as “Non-toxic”.

`O=C(N1CCC2(CC1)CC(CN1CCCCS1(=O)=O)CCO2)C1(c2ccc(F)cc2)CCCC1` (stereo unspecified): in data set [4], the kinetic solubility was 190 µM (≈ 93.6 µg/mL). In addition, the inhibition at 40 µM in the data set with Chikungunya virus [1] was found to be 90%. The EC50 in the data set with Chikungunya virus [2] was greater than 39.8 µM. This compound came in with an inhibition with Chikungunya virus [3] of 80%. Further, in the data set with MRC5, the Activity entry is given as “Non-toxic”. This compound also had an IC50 against Polyprotein P1234 greater than 39.8 µM.

`CNCC1CCOC2(CCN(C(=O)C3(c4ccccc4)CCCC3)CC2)C1` (stereo unspecified) displayed a kinetic solubility in data set [4] of 170 µM (≈ 63 µg/mL). The inhibition at 40 µM in the data set with Chikungunya virus [1] was 60%. Also, the EC50 in the data set with Chikungunya virus [2] is greater than 39.8 µM. In addition, the inhibition result in the data set on Chikungunya virus [3] is “inactive”. Moreover, the Activity entry in the data set with MRC5 is recorded as “Non-toxic”.

For `CS(=O)(=O)NCC1CCOC2(CCN(C(=O)Cc3ccccc3)CC2)C1` (stereo unspecified), the kinetic solubility in data set [4] was 200 µM (≈ 76.1 µg/mL). Besides, the inhibition entry in the data set on Chikungunya virus [1] and in the data set with Chikungunya virus [3] was “inactive” throughout. The Activity entry in the data set on MRC5 is listed as “Non-toxic”.

Take `NCC1CCOC2(CCN(C(=O)C3(c4ccccc4)CCCC3)CC2)C1` (stereo unspecified): the solubility (kinetic) in data set [4] was 160 µM (≈ 57 µg/mL). The inhibition at 40 µM in the data set with Chikungunya virus [1] is 60%. For the same compound, in the data set with Chikungunya virus [2], the EC50 was greater than 39.8 µM. Besides, the inhibition result in the data set on Chikungunya virus [3] was “inactive”. Also, in the data set with MRC5, the Activity result is reported as “Non-toxic”.

As to `CN(C)S(=O)(=O)NCC1CCOC2(CCN(C(=O)C(=O)c3ccccc3)CC2)C1` (stereo unspecified), in data set [4], the kinetic solubility was 170 µM (≈ 72 µg/mL). The inhibition result in the data set on Chikungunya virus [1] and in the data set with Chikungunya virus [3] was “inactive” each time. For the same compound, the Activity result in the data set on MRC5 is “Non-toxic”.

Take `NCC1(O)CCOC2(CCN(C(=O)C3(c4ccccc4)CCCC3)CC2)C1` (stereo unspecified): in data set [4], the kinetic solubility was 170 µM (≈ 63.3 µg/mL). The inhibition at 40 µM in the data set on Chikungunya virus [1] was found to be 50%. Besides, the EC50 in the data set with Chikungunya virus [2] was greater than 39.8 µM. Besides, the inhibition entry in the data set on Chikungunya virus [3] was “inactive”. Also, the Activity entry with MRC5 is listed as “Non-toxic”.

In data set [4], `CS(=O)(=O)NCC1CCOC2(CCN(C(=O)C3(c4ccccc4)CCOCC3)CC2)C1` (stereo unspecified) registered a kinetic solubility of 190 µM (≈ 85.6 µg/mL). The inhibition result in the data set with Chikungunya virus [1] and in the data set on Chikungunya virus [3] was “inactive” in each case. In the data set with MRC5, the Activity entry is recorded as “Non-toxic”.

Regarding `CC1(C(=O)N2CCC3(CC2)CC(CNS(C)(=O)=O)CCO3)CCCC1` (stereo unspecified), in the data set with Chikungunya virus [1], the inhibition at 40 µM turned out to be 40%. Also, in the data set on Chikungunya virus [2], the EC50 is greater than 39.8 µM. Moreover, in the data set on Chikungunya virus [3], the inhibition result was “inactive”. The Activity result in the data set on MRC5 is on record as “Non-toxic”.
